In the assay the test system is human liver cancer cell line JHH-7. Description: Antitumor effect (tumor weight T/C) on human liver cancer cell line JHH-7 transplanted into the left lateral liver lobe of nude mice. The class given is in vivo, mouse. The following applies: tumor weight on 15th day. The protocol: Sorafenib was weighed at every time of use, and a liquid for administration was prepared. […] BALE/cA Jcl-nu male nude mice (Clea Japan, Inc.) were used as the efficacy test animals.
On the 15th day after the initiation of administration, the mice were killed by bleeding under ether anesthesia, subsequently tumors formed in the left lateral liver lobe were extracted, and the weight of the tumors was measured. The tumor growth rate (%) was calculated by the formula shown below, and the T/C value of each of the drug administered groups was calculated, while the average tumor weight of the non-drug administered control group was taken as 100%. This T/C value was used as an index of the antitumor effect. The statistical significance of the single drug administered groups was determined by Welch's two-tailed test, and the statistical significance of the effect synergizing action obtained by combined use was determined by the intersection union test based on Welch's two-tailed test.
Tumor growth rate (%)=T/C×100
T: Average tumor weight of a group with administration of the test compound
C: Average tumor weight of a group without administration of the test compound
On the 11th day after the transplantation, the animals were grouped into seven animals per group, and the treatment experiment was initiated. Doxorubicin was administered such that 10 mg/kg, which is the maximum tolerated dose for a mouse, was administered one time intravenously. Sorafenib was orally administered once a day for 14 consecutive days.
On the 11th day after the transplantation, the animals were grouped into seven animals per group, and the treatment experiment was initiated. Gemcitabine was administered such that 120 mg/kg, which is the maximum tolerated dose for a mouse, was administered intraperitoneally four times in total at an interval of 3 days. Sorafenib was orally administered once a day for 14 consecutive days.

In the case of `CNC(=O)c1cc(Oc2ccc(NC(=O)Nc3ccc(Cl)c(C(F)(F)F)c3)cc2)ccn1` [sorafenib, N-(4-chloro-3-(trifluoromethyl)phenyl)-N′-(4-(2-(N-methylcarbamoyl)-4-pyridyloxy)phenyl)urea], the “T/C value (tumor growth rate)” value is 62% (Comparative Example 1, sorafenib single drug, orally once a day for 14 days); 60% (Comparative Example 2, sorafenib single drug, orally once a day for 14 days); 65% (Pharmacological Test Example 1, sorafenib single drug, 10 mg/kg orally once a day for 14 days).
For the compound `C[Si](C)(C)c1cc(C(=O)Nc2ccc(C(=O)O)cc2)cc([Si](C)(C)C)c1` [compound 1, 4-[[3,5-bis(trimethylsilyl)benzoyl]amino]benzoic acid], the “T/C value (tumor growth rate)” value (Pharmacological Test Example 1, compound 1 single drug, 2 mg/kg orally once a day for 14 days) worked out at 51%.
With `COc1cccc2c1C(=O)c1c(O)c3c(c(O)c1C2=O)C[C@@](O)(C(=O)CO)C[C@@H]3O[C@H]1C[C@H](N)[C@H](O)[C@H](C)O1` [doxorubicin], the “T/C value (tumor growth rate)” value (Comparative Example 1, doxorubicin single drug, 10 mg/kg one time intravenously) was 70%.
Turning to `Nc1ccn([C@@H]2O[C@H](CO)[C@@H](O)C2(F)F)c(=O)n1` [gemcitabine], the “T/C value (tumor growth rate)” value (Comparative Example 2, gemcitabine single drug, 120 mg/kg intraperitoneally four times at an interval of 3 days) was determined as 47%.

Values taken from patent US20110172184A1, “ANTITUMOR AGENT CONTAINING 4 - [[3,5 - BIS ([…]) BENZOYL] AMINO] BENZOIC ACID” (TAIHO PHARMACEUTICAL CO., LTD., priority 2008, published 2011).
